From US9801854B1, “Slow release formulations of cell cycle regulators and anti-cancer agents for local treatment of solid cancer” (THERACOAT LTD., priority 2014, dated 2017)
Where two headings read alike, the source gives them in different places.

Experiments:
Assay type in all cases: cell-based, human
UM-UC-3 cells [1] = test: Cell cycle analysis by flow cytometry (PI staining) after HU exposure and withdrawal; conditions: 1 mM HU for 20 hours, wash, 2-10 hours without drug, majority in S phase 4 to 8 hours after wash
Description: (§1) The human bladder cancer cell lines, UM-UC-3 and RT-4, were obtained from the ATCC and grown in RPMI 1640 medium (Gibco) supplemented with 10% v/v fetal calf serum (Gibco), 100 U/ml penicillin and 100 µg/ml streptomycin (Biological Industries). Cells were grown at 37° C., 5% CO2 in a humidified atmosphere and harvested using 0.25% w/v trypsin, 0.02% w/v EDTA. Cells were washed in media to inactivate trypsin before reseeding or analysis. A LSRII Flow cytometer or Cyan Flow Cytometer were used for determining DNA content and cell cycle distribution of UM-UC-3 and RT-4 cells. Cells were seeded in 6 well plates (10^6 cells/well) and incubated overnight. […] When sequential treatment was done, the second drug was administered immediately or 2-48 hours following the wash of the 1st treatment. The 2nd treatment was then applied for additional 2-48 hrs before analysis. […] PI staining was identified by using the red fluorescence (585+/−40 nm). In some experiments, cells harvested as for cell cycle determination were also stained with Annexin V or anti-activated Caspase-3 antibody for identifying apoptotic cells. Annexin V or activated Caspase-3 positive cells were identified using the green fluorescence (530+/−30 nm).

RT-4 cells = test: as above; conditions: 1 mM HU for 20 hours, wash, 2-10 hours without drug, majority in S phase 4 to 8 hours after wash
Description: as §1

UM-UC-3 cells [2] = test: XTT cytotoxicity assay; conditions: for viability at 1000 µM: Homo sapiens, 1 mM HU 20 hours, wash, untreated cells = 100%; for EC50: read-out: EC50 (cell viability)
Description: Cells were washed in media to inactivate trypsin before reseeding or analysis.
Hydroxyurea concentrations were selected based upon concentration ranges known in the art.
XTT assay for cytotoxicity was then performed and plates were analyzed in an ELISA reader at a wave length of 490 nm.
Cells were pretreated with 1 mM HU (or DMSO-vehicle control) for 20 hours. […] The percentage of viable cells presented was calculated from untreated cells with viability of 100%.
UM-UC-3 cells were cultured in 96 well microculture plates. Cells were pretreated with 1 mM HU (or DMSO-vehicle control) for 20 hours. Cells were then washed. […] The percentage of viable cells presented was calculated from untreated cells with viability of 100%.
The methods used were as described in the other examples. Briefly, UM-UC-3 cells were cultured in 96 well microculture plates. Cells were pretreated with 1 mM HU (or DMSO-vehicle control) for 2 hours. […] The percentage of viable cells presented in the figures and table was calculated from untreated cells with viability of 100%.

SMILES | cell cycle arrest / synchronization in S phase (UM-UC-3 cells [1]) | cell cycle arrest / synchronization in S phase (RT-4 cells) | viability at 1000 µM (UM-UC-3 cells [2]; UMUC3, Example 3: UM-UC-3, 20 μM MMC, XTT 24 hours after MMC addition) | viability at 1000 µM (UM-UC-3 cells [2]; UMUC3, Example 4: UM-UC-3, 2 hours delay, 10 μM MMC 8 hours, XTT 48 hours after MMC addition) | EC50 (UM-UC-3 cells [2]; Example 3 conditions: UM-UC-3, MMC 24 hours, XTT) | EC50 (UM-UC-3 cells [2]; Example 4 conditions: UM-UC-3, MMC 8 hours, XTT 48 hours after MMC addition)
NC(=O)NO [HU, Hydroxyurea] | cell cycle synchronization at the S phase | cell cycle synchronization at the S phase | 76.5% | 59.6% |  | 
CO[C@@]12[C@H](COC(N)=O)C3=C(C(=O)C(C)=C(N)C3=O)N1C[C@@H]1N[C@@H]12 [MMC, Mitomycin C] |  |  |  |  | ~20 µM | 10 µM
